Results taken from paper PMC11984905, “Chiral Switch of Gadopiclenol: New Standards in MRI Probes” (Advanced Science, 2025).

Columns and labels:
[1] = Eu^3+ complex, 0.1 M Me4NCl, 25 °C, cited from earlier work
[2] = 0.1 M Me4NCl, 25 °C; cited from earlier work
[3] = Relaxivity (NMRD) in saline solution, human plasma and Seronorm at 310 K; assay type: physicochemical
Procedure: The magnetic‐field dependence of the longitudinal relaxation rate of water protons (^1H NMRD) were measured in aqueous solution by using a variable field relaxometer equipped with an HTS‐110 3T Metrology Cryogen‐free Superconducting Magnet (Mede, Italy), operating in the overall range of proton Larmor frequencies of 20–120 MHz (0.47–3.00 T). The measurements were performed using the standard inversion recovery sequence (20 experiments, 3 scans) with a 90° pulse width of 3.5 µs. The temperature was controlled with a Stelar VTC‐91 heater airflow. Additional points in the 0.01–10 MHz frequency range were collected on a Fast‐Field Cycling (FFC) Stelar SmarTracer Relaxometer. T 1 values at 500 MHz were collected on a Bruker Avance III NMR spectrometer operating at 11.7 T. The concentration of Gd^3+ in the solutions was determined by using bulk magnetic susceptibility (BMS) shift measurements performed at 11.7 T. For the measurements in the biological fluid, lyophilized plasma matrix (Siemens Healthcare) was added to 1 mL of [Gd(ent‐L2)] (1.0 mM) or Seronorm (Sero) was solubilized in 5 mL [Gd(ent‐L2)] (1.0 mM) solution. ^1H NMRD of the final solution was measured at 310 K.

[4] = Biodistribution and in vivo dynamic T1-weighted MRI; set-up: species or system A/J healthy mice; conditions: 0.1 mmol Gd/kg i.v.
Procedure: Dynamic T 1‐weighted MRI on twelve A/J healthy mice was used to compare the biodistribution of ([Gd(ent‐L2)] and [Gd(BT‐DO3A)] (Gadovist), n = 6 animals each), administered at 0.1 mmol Gd/kg. The MRI monitored the distribution within abdominal tissues for up to 1 h post‐administration MRI images and the pharmacokinetic curves are shown in Figure 6 .
All the procedures and the experiments were conducted according to the national and international laws on experimental animal research (L.D. 26/2014; Directive 2010/63/EU) and under a specific Italian Ministerial Authorization (project research number 46/2015‐PR). Twelve A/J healthy mice (females, 6–7 weeks old, supplied by Envigo RMS S.r.l.) were housed in a controlled environment (22°C, 55% humidity, 15–20 air changes/hour, 12‐h light/dark cycle) with ad libitum access to VRF1 (P) certified pellets and filtered water. To minimize discomfort, the animals were socially housed with enrichment items. Veterinary care was available throughout the study to alleviate any potential pain or distress following procedures. […] The animals were randomly assigned to two experimental groups (n = 6 each, with sample size confirmed via GPower) and underwent to Magnetic Resonance Imaging (MRI) experiments performed using a BioSpec 47/30 preclinical scanner (Bruker Biospin, Ettlingen, Germany) operating at […] (i.e., at a proton Larmor frequency of 125 MHz) and equipped with two‐channel 35 mm RF volume coil. During MRI experiments, all the animals were anaesthetized with isoflurane gas (≈1%) in O2. Anaesthesia was maintained by adjustment of gas level as a function of breath rate. Before injection of each test article, T 1‐weighted spin echo sequences were acquired on the animal in order to check the position of the animal. A series of T 1‐weighted 3D gradient echoscans (repetition time = 50 ms, flip angle = 50°, echo time = 2.8 ms, number of averages = 2, matrix size (3D) = 192 × 192 × 8, field of view = 2.5 × 2.5 × 1.2 cm, acquisition time = 154 s) were then acquired before and after the intravenous administration of a 50 mM saline solution (0.9%) of [Gd(ent‐L2)] (n = 6 mice) and [Gd(BT‐DO3A)] (Gadovist, Bayer Schering, Germany) (n = 6 mice) at an injection rate of ≈2 mL/min through a catheter placed in the tail vein of the animal. Both [Gd(ent‐L2)] and [Gd(BT‐DO3A)] were administered at a dose of 0.1 mmol Gd/kg corresponding to an administration volume of 2 mL kg^−1. The kinetics of the Gd(III)‐complexes was followed up to 60 min post‐injection. After imaging was performed, the mouse was removed from the scanner and returned to the Animal Facility room. At the end of the study all animals were sacrificed by overdose of anaesthesia and cervical dislocation. Unblinded image analysis was performed by positioning the region of interest (ROIs) over liver, kidney, muscle, and blood vessel. ROIs positioning and signal quantification was performed by using a home‐developed plugin, running on Image J.^[ [51] ^]
Signal enhancement (Enh) was calculated using the formula: Enh = 100×(SignalpostCA ‐SignalpreCA)/SignalpreCA, where SignalpreCA and SignalpostCA denote the MR signal before and after administration of contrast agents, respectively. Data were presented as mean ± standard deviation (SD). The sample size (n = 6 per group) was determined a priori using GPower software to ensure adequate statistical power. The Levene's test was employed to assess the homogeneity of variances among groups. For comparisons where homogeneity of variance was confirmed, a one‐way ANalysis Of VAriance (ANOVA) was applied to test the null hypothesis that treatment groups originate from the same distribution. Post‐hoc pairwise multiple comparisons were performed using Tukey's method when significant differences were detected. Statistical analyses and data visualization were conducted using Mathematica (Wolfram, USA), while summary statistics (mean, SD, and standard error) were calculated using Microsoft Excel (USA). […]

## O=C(O)CCC(C(=O)O)N1CCN(C(CCC(=O)O)C(=O)O)Cc2cccc(n2)CN(C(CCC(=O)O)C(=O)O)CC1 (racemic) [rac‐L1, 2,2’,2’’-[3,6,9,15-tetraazabicyclo[9.3.1]pentadeca-1(15),11,13-triene-3,6,9-triyl]tripentanedioic acid]
[1]; 1 µM metal, 10 µM L, pH 7.4
  pGd (Eu^3+): 16.06
[1]
  logK GdL (Eu^3+): 18.66
  logKGdH2L (Eu^3+): 4.54
  logKGdH3L (Eu^3+): 4.12
  logKGdHL (Eu^3+): 5.34
[1]; pH 7.4
  logK^c GdL (Eu^3+): 15.10
[2]
  logK1^H: 10.85
  logK2^H: 6.86
  logK3^H: 5.37
  logK4^H: 4.77
  logK5^H: 4.24
  logK6^H: 3.4
  logK7^H: 1.92
  ΣlogKi^H: 37.50

## O=C(CCC(C(=O)[O-])N1CCN(C(CCC(=O)NCC(O)CO)C(=O)[O-])Cc2cccc(n2)CN(C(CCC(=O)NCC(O)CO)C(=O)[O-])CC1)NCC(O)CO.[Gd+3] (stereo not drawn) [[Gd(ent‐L2)]]
[3]
  plasma protein binding: lack of plasma protein binding
[3]; 0.47 T, human plasma, 310 K
  r1: 13.6 ± 0.1 mM⁻¹ s⁻¹
[3]; 0.47 T, saline solution, 310 K
  r1: 12.6 ± 0.1 mM⁻¹ s⁻¹
[3]; 1.41 T, human plasma, 310 K
  r1: 13.4 ± 0.2 mM⁻¹ s⁻¹
[3]; 1.41 T, saline solution, 310 K
  r1: 12.6 ± 0.1 mM⁻¹ s⁻¹
[3]; 3 T, human plasma, 310 K
  r1: 13.1 ± 0.2 mM⁻¹ s⁻¹
[3]; 3 T, saline solution, 310 K
  r1: 12.4 ± 0.1 mM⁻¹ s⁻¹
[3]; 37 °C and 3 T
  r 1 relative to that of [Gd(BT-DO3A)] (Gadovist): more than two times higher
[3]; 310 K, vs water
  change in relaxivity (NMRD profile) in human plasma and in Seronorm: negligible changes in relaxivity
[4]
  elimination pathway: renal elimination remains the primary pathway
[4]; 3 T, n = 6
  average maximum signal enhancement in the liver: ≈ 210%
[4]; up to 1 h post-administration
  wash-in and wash-out kinetics: rapid wash‐in and wash‐out
[4]; same dose, 3 T, significance level 0.1%
  maximum signal enhancement in the blood compartment, times higher than that of [Gd(BT-DO3A)]: ≈ 2 times
[4]; within 30 min, 3 T
  decrease in signal enhancement in the blood compartment: ≥ 50%
